Reference: patent publication US10294229B2, “Heteroaryl substituted aminopyridine compounds” (BRISTOL-MYERS SQUIBB COMPANY, priority 2015, dated 2019)
pEC50, pIC50: −log10 of the molar value.

Experiments:
IRAK4 = IRAK4 (Homo sapiens (Human), UniProt Q9NWZ3); test: IRAK4 Inhibition Assay; assay type: biochemical; conditions: ATP 500 μM; IRAK4 0.6 nM
Outline: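 Mobility-shift readout: phosphorylated and unphosphorylated fluorescent peptide (1.5 μM) resolved by electrophoresis after a 60 min room-temperature reaction stopped with EDTA. Reaction holds 0.6 nM IRAK4, 500 μM ATP and 1.6% DMSO in HEPES pH 7.2/MgCl2/Brij 35/DTT buffer; percent inhibition set against vehicle and no-enzyme controls.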

[1] = tested on: Human whole blood stimulated with a TLR2 agonist (lipoteichoic acid), IL-6 levels; test: IRAK4 Whole Blood Assay; assay type: cell-based; conditions: lipoteichoic acid 10 μg/mL
Outline: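 ACD-A-anticoagulated human whole blood was preincubated with compounds for 60 min at 37 °C under 5% CO2. It was then stimulated with 10 μg/mL lipoteichoic acid (final) in RPMI for 5 h. IL-6 in plasma supernatants was measured by flow cytometry bead assay.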

Chain of IRAK4 (Q9NWZ3 whole entry, species assumed): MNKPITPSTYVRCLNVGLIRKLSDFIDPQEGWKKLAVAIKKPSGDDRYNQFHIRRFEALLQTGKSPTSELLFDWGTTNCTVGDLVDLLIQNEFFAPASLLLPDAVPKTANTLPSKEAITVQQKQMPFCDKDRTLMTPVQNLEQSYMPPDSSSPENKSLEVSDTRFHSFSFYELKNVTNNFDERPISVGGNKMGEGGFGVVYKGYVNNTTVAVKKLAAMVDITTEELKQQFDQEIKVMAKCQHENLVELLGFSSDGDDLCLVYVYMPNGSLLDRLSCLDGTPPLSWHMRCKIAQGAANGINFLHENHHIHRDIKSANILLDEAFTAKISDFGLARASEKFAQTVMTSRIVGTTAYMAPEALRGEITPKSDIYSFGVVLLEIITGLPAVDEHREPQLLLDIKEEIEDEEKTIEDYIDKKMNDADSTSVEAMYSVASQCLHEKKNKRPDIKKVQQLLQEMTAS

| pIC50 (IRAK4) | pEC50 ([1]; Homo sapiens) | pEC50 [1] | SMILES |
| --- | --- | --- | --- |
| 8.40 | 6.09 |  | CC(C)Nc1cc(-n2ncc3cc(C#N)cnc32)ncc1-n1cc(C2CCC(N)CC2)nn1 (stereo not shown) [Example 340, 1-(5-(4-((1s,4s)-4-aminocyclohexyl)-1H-1,2,3-triazol-1-yl)-4-(isopropylamino)pyridin-2-yl)-1H-pyrazolo[3,4-b]pyridine-5-carbonitrile] |
| 8.70 | 5.95 |  | CC(C)Nc1cc(-n2ncc3cc(C#N)cnc32)ncc1-n1cc(C2CCC(NC(=O)OC(C)(C)C)CC2)nn1 (stereo not shown) [Example 342, tert-butyl ((1s,4s)-4-(1-(6-(5-cyano-1H-pyrazolo [3,4-b]pyridin-1-yl)-4-(isopropylamino)pyridin-3-yl)-1H-1,2,3-triazol-4-yl)cyclohexyl) carbamate] |
| 8.52 | 6.28 |  | CC(C)Nc1cc(-n2ncc3cc(C#N)cnc32)ncc1-n1cc(C2CCC(NC(C)C)CC2)nn1 (stereo not shown) [Example 343, 1-(4-(isopropylamino)-5-(4-((1 s,4s)-4-(isopropylamino)cyclohexyl)-1H-1,2,3-triazol-1-yl)pyridin-2-yl)-1H-pyrazolo[3,4-b]pyridine-5-carbonitrile] |
| 8.52 | 6.19 |  | COC(=O)NC1CCC(c2cn(-c3cnc(-n4ncc5cc(C#N)cnc54)cc3NC(C)C)nn2)CC1 (stereo not shown) [Example 344, methyl ((1s,4s)-4-(1-(6-(5-cyano-1H-pyrazolo[3,4-b]pyridin-1-yl)-4-(isopropylamino)pyridin-3-yl)-1H-1,2,3-triazol-4-yl)cyclohexyl)carbamate] |
| 8.22 | 6.34 |  | CCS(=O)(=O)N1CCC(c2cn(-c3cnc(-n4ncc5cc(C#N)cnc54)cc3NC(C)C)nn2)CC1 [Example 346, 1-(5-(4-(1-(ethylsulfonyl)piperidin-4-yl)-1H-1,2,3-triazol-1-yl)-4-(isopropylamino)pyridin-2-yl)-1H-pyrazolo[3,4-b]pyridine-5-carbonitrile] |
| 7.70 | 6.34 |  | COC(=O)NCCc1cn(-c2cnc(-n3ncc4cc(C#N)cnc43)cc2NC(C)C)nn1 [Example 352, methyl (2-(1-(6-(5-cyano-1H-pyrazolo[3,4-b]pyridin-1-yl)-4-(isopropylamino)pyridin-3-yl)-1H-1,2,3-triazol-4-yl)ethyl)carbamate] |
| 7.96 |  | 6.37 | CC(F)Cc1cn(-c2cnc(-n3ncc4cc(C#N)cnc43)cc2NC2CC2)nn1 (stereo not shown) [Example 353, 1-(4-(cyclopropylamino)-5-(4-(2-fluoropropyl)-1H-1,2,3-triazol-1-yl)pyridin-2-yl)-1H-pyrazolo[3,4-b]pyridine-5-carbonitrile] |
| 8.15 | 6.36 |  | CC(C)(O)CCc1cn(-c2cnc(-n3ncc4cc(C#N)cnc43)cc2NCCC(F)(F)F)nn1 [Example 362, 1-(5-(4-(3-hydroxy-3-methylbutyl)-1H-1,2,3-triazol-1-yl)-4-((3,3,3-trifluoropropyl)amino)pyridin-2-yl)-1H-pyrazolo[3,4-b]pyridine-5-carbonitrile] |
| 8.05 |  | 6.39 | CC(C)(O)CCc1cn(-c2cnc(-n3ncc4cc(C#N)cnc43)cc2NC2CCOC2)nn1 [Example 366, (S)-1-(5-(4-(3-hydroxy-3-methylbutyl)-1H-1,2,3-triazol-1-yl)-4-((tetrahydrofuran-3-yl)amino)pyridin-2-yl)-1H-pyrazolo[3,4-b]pyridine-5-carbonitrile] |
| 8.22 |  | 6.34 | CC(C)Nc1cc(-n2ncc3cnc(N)nc32)ncc1-n1cc(CCC(C)(C)O)nn1 [Example 380, 4-(1-(6-(6-amino-1H-pyrazolo[3,4-d]pyrimidin-1-yl)-4-(isopropylamino)pyridin-3-yl)-1H-1,2,3-triazol-4-yl)-2-methylbutan-2-ol] |
| 8.70 | 6.60 |  | CC(C)(O)CCc1cn(-c2cnc(-n3ncc4cc(C#N)cnc43)cc2NC(C)(C)CO)nn1 [Example 381, 1-(4-((1-hydroxy-2-methylpropan-2-yl)amino)-5-(4-(3-hydroxy-3-methylbutyl)-1H-1,2,3-triazol-1-yl)pyridin-2-yl)-1H-pyrazolo[3,4-b]pyridine-5-carbonitrile] |
| 8.70 | 6.43 |  | CC(C)(O)CCc1cn(-c2cnc(-n3ncc4cc(C#N)cnc43)cc2NC2(C)CC2)nn1 [Example 383, 1-(5-(4-(3-hydroxy-3-methylbutyl)-1H-1,2,3-triazol-1-yl)-4-((1-methylcyclopropyl)amino)pyridin-2-yl)-1H-pyrazolo[3,4-b]pyridine-5-carbonitrile] |
| 8.22 | 6.59 |  | CC(C)Nc1cc(-n2ncc3cc(C#N)cnc32)ncc1-n1cc(CC[C@@](C)(O)CO)nn1 [Example 388, (R)-1-(5-(4-(3,4-dihydroxy-3-methylbutyl)-1H-1,2,3-triazol-1-yl)-4-(isopropylamino)pyridin-2-yl)-1H-pyrazolo[3,4-b]pyridine-5-carbonitrile] |
| 8.30 | 6.34 |  | CC(C)Nc1cc(-n2ncc3cc(C#N)cnc32)ncc1-c1cc(C2CNC2)no1 [Example 397, 1-(5-(3-(azetidin-3-yl)isoxazol-5-yl)-4-(isopropylamino)pyridin-2-yl)-1H-pyrazolo[3,4-b]pyridine-5-carbonitrile] |
| 8.70 | 6.31 |  | COC(=O)N1CCC[C@@H](c2cc(-c3cnc(-n4ncc5cc(C#N)cnc54)cc3NC(C)C)on2)C1 [Example 408, methyl (R)-3-(5-(6-(5-cyano-1H-pyrazolo[3,4-b]pyridin-1-yl)-4-(isopropylamino)pyridin-3-yl)isoxazol-3-yl)piperidine-1-carboxylate] |
| 8.70 | 6.32 |  | CC(C)Nc1cc(-n2ncc3cc(C#N)cnc32)ncc1-c1cc(C2CCCOC2)no1 (stereo not shown) [Example 416, 1-(4-(isopropylamino)-5-(3-(tetrahydro-2H-pyran-3-yl)isoxazol-5-yl)pyridin-2-yl)-1H-pyrazolo[3,4-b]pyridine-5-carbonitrile] |
| 8.52 | 6.31 |  | CC(C)Nc1cc(-n2ncc3cc(C#N)cnc32)ncc1-c1cc(C2CCOCC2)no1 [Example 418, 1-(4-(isopropylamino)-5-(3-(tetrahydro-2H-pyran-4-yl)isoxazol-5-yl)pyridin-2-yl)-1H-pyrazolo[3,4-b]pyridine-5-carbonitrile] |
| 9.00 | 6.47 |  | CC(C)Nc1cc(-n2ncc3cc(C#N)cnc32)ncc1-c1cc(CCC(C)(C)O)no1 [Example 426, 1-(5-(3-(3-hydroxy-3-methylbutyl)isoxazol-5-yl)-4-(isopropylamino)pyridin-2-yl)-1H-pyrazolo[3,4-b]pyridine-5-carbonitrile] |
| 8.70 | 6.35 |  | CC(C)Nc1cc(-n2ncc3cc(C#N)cnc32)ncc1-c1cc(CCC(C)(C)O)on1 [Example 429, 1-(5-(5-(3-hydroxy-3-methylbutyl)isoxazol-3-yl)-4-(isopropylamino)pyridin-2-yl)-1H-pyrazolo[3,4-b]pyridine-5-carbonitrile] |
| 9.00 | 6.43 |  | CC(C)Nc1cc(-n2ncc3cc(C#N)cnc32)ncc1-c1cc([C@@H]2CCCCN2S(C)(=O)=O)on1 [Example 432, (S)-1-(4-(isopropylamino)-5-(5-(1-(methylsulfonyl)piperidin-2-yl)isoxazol-3-yl)pyridin-2-yl)-1H-pyrazolo[3,4-b]pyridine-5-carbonitrile] |
| 8.40 | 6.48 |  | CC(C)Nc1cc(-n2ncc3cc(C#N)cnc32)ncc1-c1nnc(N[C@H]2CC[C@H](N)CC2)o1 [Example 434, 1-(5-(5-(((1R,4R)-4-aminocyclohexyl)amino)-1,3,4-oxadiazol-2-yl)-4-(isopropylamino)pyridin-2-yl)-1H-pyrazolo[3,4-b]pyridine-5-carbonitrile] |
| 8.70 | 6.68 |  | CC(C)Nc1cc(-n2ncc3cc(C#N)cnc32)ncc1C1=NOC(CCC(C)(C)O)C1 (stereo not shown) [Example 437, 1-(5-(5-(3-hydroxy-3-methylbutyl)-4,5-dihydroisoxazol-3-yl)-4-(isopropylamino)pyridin-2-yl)-1H-pyrazolo[3,4-b]pyridine-5-carbonitrile] |
| 8.40 | 6.39 |  | CC(C)(O)CCC1CC(c2cnc(-n3ncc4cc(C#N)cnc43)cc2NCC(F)F)=NO1 (stereo not shown) [Example 442, 1-(4-((2,2-difluoroethyl)amino)-5-(5-(3-hydroxy-3-methylbutyl)-4,5-dihydroisoxazol-3-yl)pyridin-2-yl)-1H-pyrazolo[3,4-b]pyridine-5-carbonitrile] |
